{"source": "ChEMBL document CHEMBL5052834", "about": "“CXCL10 Inhibitors” (2021)", "key": {"[1]": {"system": "Keratinocyte", "experiment": "Inhibition of CXCL10 protein secretion in LPS-stimulated human keratinocytes measured by ELISA assay", "type": "functional, cell-based"}, "[2]": {"system": "Keratinocyte", "experiment": "Inhibition of CXCL10 protein secretion in IFN-gamma-stimulated human keratinocytes measured by ELISA assay", "type": "functional, cell-based"}, "[3]": {"system": "Keratinocyte", "experiment": "Inhibition of CXCL10 gene expression in LPS-stimulated human keratinocytes", "type": "functional, cell-based"}, "[4]": {"system": "Keratinocyte", "experiment": "Inhibition of CXCL10 gene expression in TNF-alpha-stimulated human keratinocytes", "type": "functional, cell-based"}, "[5]": {"system": "Keratinocyte", "experiment": "Inhibition of CXCL10 protein secretion in TNF-alpha-stimulated human keratinocytes measured by ELISA assay", "type": "functional, cell-based"}, "[6]": {"system": "Keratinocyte", "experiment": "Inhibition of CXCL10 protein secretion in poly (I:C)-stimulated human keratinocytes measured by ELISA assay", "type": "functional, cell-based"}, "[7]": {"system": "Keratinocyte", "experiment": "Inhibition of CXCL10 gene expression in IFN-gamma-stimulated human keratinocytes", "type": "functional, cell-based"}, "[8]": {"system": "Keratinocyte", "experiment": "Inhibition of CXCL10 gene expression in poly (I:C)-stimulated human keratinocytes", "type": "functional, cell-based"}, "[9]": {"system": "Mus musculus", "experiment": "In vivo inhibition of CXCL10 gene expression in experimental autoimmune uveitis (EAU) model of C57BL/6 mouse", "type": "functional, organism-based"}, "[10]": {"species": "Rattus norvegicus", "experiment": "Antiangiogenic activity in streptozotocin (STZ)-induced diabetes induced retinopathy model of rat assessed as decrease in retinal vascular permeability measured by Evans blue dye metho", "type": "functional, organism-based"}, "[11]": {"species": "Rattus norvegicus", "experiment": "Inhibition of CXCL10 gene expression in streptozotocin (STZ)-induced diabetes induced retinopathy model of rat assessed as decrease in amount of CXCL10 in retina measured by ELISA assay", "type": "functional"}}, "note": "Active and inactive are the calls of the source. No cut-off for these calls is given here."}
{"molecule": "Cc1c(OCC(F)(F)F)ccnc1CC(C)(O)c1nc2cc(OC(F)F)ccc2[nH]1", "note": "(stereo not drawn)", "values": [{"measurement": "inhibition", "setting": "[1]", "value": "Active"}]}
{"molecule": "COCCCOc1ccnc(CS(=O)(=O)c2nc3ccccc3[nH]2)c1C", "values": [{"measurement": "inhibition", "setting": "[2]", "value": "Active"}]}
{"molecule": "COc1c(C)cnc(CS(=O)(=O)c2nc3cc(OC(F)F)ccc3[nH]2)c1C", "values": [{"measurement": "inhibition", "setting": "[3]", "value": "Active"}]}
{"molecule": "Cc1c(OCC(F)(F)F)ccnc1CS(=O)(=O)c1nc2cc(-n3cccc3)ccc2[nH]1", "values": [{"measurement": "inhibition", "setting": "[4]", "value": "Active"}]}
{"molecule": "COCCCOc1ccnc(C[S+]([O-])c2nc3ccccc3[nH]2)c1C", "note": "(stereo not drawn)", "values": [{"measurement": "inhibition", "setting": "[3]", "value": "Active"}, {"measurement": "inhibition", "setting": "[5]", "value": "Active"}, {"measurement": "inhibition", "setting": "[6]", "value": "Active"}]}
{"molecule": "COc1ccnc(C[S+]([O-])c2nc3cc(-n4cccc4)ccc3[nH]2)c1C", "note": "(stereo not drawn)", "values": [{"measurement": "inhibition", "setting": "[5]", "value": "Active"}, {"measurement": "inhibition", "setting": "[6]", "value": "Active"}]}
{"molecule": "COc1c(C)cnc(C[S@@](=O)c2nc3ccccc3[nH]2)c1C", "values": [{"measurement": "inhibition", "setting": "[5]", "value": "Active"}]}
{"molecule": "COc1c(C)cnc(C[S@+]([O-])c2nc3cc(OC(F)F)ccc3[nH]2)c1C", "values": [{"measurement": "inhibition", "setting": "[3]", "value": "Active"}]}
{"molecule": "COc1ccc2[nH]c(S(=O)(=O)Cc3nccc(OC)c3C)nc2c1", "values": [{"measurement": "inhibition", "setting": "[7]", "value": "Active"}]}
{"molecule": "COc1ccc2[nH]c([S+]([O-])Cc3ncc(C)c(OC)c3C)nc2c1", "note": "(stereo not drawn)", "values": [{"measurement": "inhibition", "setting": "[2]", "value": "Active"}, {"measurement": "inhibition", "setting": "[6]", "value": "Active"}, {"measurement": "inhibition", "setting": "[1]", "value": "Active"}, {"measurement": "inhibition", "setting": "[8]", "value": "Active"}, {"measurement": "inhibition", "setting": "[9]", "value": "Active"}, {"measurement": "inhibition", "setting": "[4]", "value": "Active"}, {"measurement": "Activity", "setting": "[10]", "value": "Active"}, {"measurement": "inhibition", "setting": "[11]", "value": "Active"}]}
{"molecule": "Cc1cnc(CC(=O)c2nc3ccccc3[nH]2)c(C)c1OCC(F)(F)F", "values": [{"measurement": "inhibition", "setting": "[6]", "value": "Active"}]}
{"molecule": "COc1ccc2[nH]c(S(=O)(=O)Cc3ncc(C)c(OC)c3C)nc2c1", "values": [{"measurement": "inhibition", "setting": "[1]", "value": "Active"}]}
{"molecule": "COc1c(C)cnc(CC(O)c2nc3ccccc3[nH]2)c1C", "note": "(stereo not drawn)", "values": [{"measurement": "inhibition", "setting": "[4]", "value": "Active"}]}
{"molecule": "COc1ccnc(CS(=O)(=O)c2nc3cc(OC(F)F)ccc3[nH]2)c1OC", "values": [{"measurement": "inhibition", "setting": "[2]", "value": "Active"}]}
{"molecule": "COc1c(C)cnc(C[S@@+]([O-])c2nc3cc(OC(F)F)ccc3[nH]2)c1C", "values": [{"measurement": "inhibition", "setting": "[1]", "value": "Active"}]}
{"molecule": "Cc1cnc(CC(O)c2nc3cc(OC(F)F)ccc3[nH]2)c(C)c1OCC(F)(F)F", "note": "(stereo not drawn)", "values": [{"measurement": "inhibition", "setting": "[2]", "value": "Active"}]}
{"molecule": "COc1ccc2[nH]c([S@@+]([O-])Cc3nccc(OC)c3C)nc2c1", "values": [{"measurement": "inhibition", "setting": "[5]", "value": "Active"}, {"measurement": "inhibition", "setting": "[7]", "value": "Active"}]}
{"molecule": "COc1c(C)cnc(CS(=O)(=O)c2nc3cc(-n4cccc4)ccc3[nH]2)c1C", "values": [{"measurement": "inhibition", "setting": "[6]", "value": "Active"}]}
{"molecule": "COc1ccnc(CC(O)c2nc3cc(OC(F)(F)F)ccc3[nH]2)c1OC", "note": "(stereo not drawn)", "values": [{"measurement": "inhibition", "setting": "[5]", "value": "Active"}]}
{"molecule": "Cc1c(OCC(F)(F)F)ccnc1C[S+]([O-])c1nc2ccccc2[nH]1", "note": "(stereo not drawn)", "values": [{"measurement": "inhibition", "setting": "[3]", "value": "Active"}, {"measurement": "inhibition", "setting": "[7]", "value": "Active"}, {"measurement": "inhibition", "setting": "[1]", "value": "Active"}, {"measurement": "inhibition", "setting": "[4]", "value": "Active"}]}
{"molecule": "Cc1c(OCC(F)(F)F)ccnc1CS(=O)(=O)c1nc2cc(OC(F)F)ccc2[nH]1", "values": [{"measurement": "inhibition", "setting": "[3]", "value": "Active"}, {"measurement": "inhibition", "setting": "[7]", "value": "Active"}]}
{"molecule": "COc1ccnc(C[S+]([O-])c2nc3cc(OC(F)F)ccc3[nH]2)c1OC", "note": "(stereo not drawn)", "values": [{"measurement": "inhibition", "setting": "[2]", "value": "Active"}, {"measurement": "inhibition", "setting": "[3]", "value": "Active"}, {"measurement": "inhibition", "setting": "[8]", "value": "Active"}, {"measurement": "inhibition", "setting": "[4]", "value": "Active"}, {"measurement": "Activity", "setting": "[10]", "value": "Active"}, {"measurement": "inhibition", "setting": "[11]", "value": "Active"}]}
{"molecule": "COc1ccnc(CC(O)c2nc3ccccc3[nH]2)c1C", "note": "(stereo not drawn)", "values": [{"measurement": "inhibition", "setting": "[6]", "value": "Active"}, {"measurement": "inhibition", "setting": "[8]", "value": "Active"}]}
{"molecule": "COCCCOc1ccnc(CC(=O)c2nc3cc(OC(F)(F)F)ccc3[nH]2)c1C", "values": [{"measurement": "inhibition", "setting": "[8]", "value": "Active"}]}
{"molecule": "COc1ccnc(CC(C)(O)c2nc3cc(-n4cccc4)ccc3[nH]2)c1OC", "note": "(stereo not drawn)", "values": [{"measurement": "inhibition", "setting": "[2]", "value": "Active"}]}
{"molecule": "COc1ccc2[nH]c(C(=O)Cc3ncc(C)c(OC)c3C)nc2c1", "values": [{"measurement": "inhibition", "setting": "[8]", "value": "Active"}]}
{"molecule": "COc1ccnc(CS(=O)(=O)c2nc3ccccc3[nH]2)c1OC", "values": [{"measurement": "inhibition", "setting": "[8]", "value": "Active"}]}
{"molecule": "COCCCOc1ccnc(C[S@+]([O-])c2nc3cc(OC(F)(F)F)ccc3[nH]2)c1C", "values": [{"measurement": "inhibition", "setting": "[1]", "value": "Active"}]}
{"molecule": "COc1ccnc(CC(O)c2nc3cc(OC(F)(F)F)ccc3[nH]2)c1C", "note": "(stereo not drawn)", "values": [{"measurement": "inhibition", "setting": "[4]", "value": "Active"}]}
{"molecule": "COc1c(C)cnc(CC(O)c2nc3cc(-n4cccc4)ccc3[nH]2)c1C", "note": "(stereo not drawn)", "values": [{"measurement": "inhibition", "setting": "[7]", "value": "Active"}]}
{"molecule": "COc1ccnc(CC(C)(O)c2nc3cc(OC(F)(F)F)ccc3[nH]2)c1OC", "note": "(stereo not drawn)", "values": [{"measurement": "inhibition", "setting": "[5]", "value": "Active"}]}
{"molecule": "COc1ccc2[nH]c([S@+]([O-])Cc3ncc(C)c(OC)c3C)nc2c1", "values": [{"measurement": "inhibition", "setting": "[7]", "value": "Active"}]}
